Assay results published in patent US20030040114A1, “SMALL MOLECULE MODULATION OF RIBOZYMES” (Warner-Lambert Company,, priority 1996, published 2003).
Starred links: 1 amine or outer side, 2 acyl side, 3 side chain; linkers in the order of their positions; H or OH if unused. Positions of bridges follow the written chain, without caps; N, C: chain ends. Non-standard residues stand in square brackets, D forms with d. Residues, ends and D or L forms follow the SMILES beside them. *: point of attachment. X1 = NC1=N[C@@H]([C@H](N[*:1])C(=O)[*:2])C[C@H](O)N1; ΔAla(Z-3-ureido) = NC(=O)N/C=C(\N)C(=O)O; β3hOrn = NCCC[C@H](N)CC(=O)*; Dap = NC[C@H](N)C(=O)O

Columns and labels:
[1] = test system: self-splicing Pneumocystis carinii Group I intron RNA; assay: Multiple-loading gel electrophoresis assay for self-splicing Group I intron; format: biochemical; conditions: single concentration 20 μM; four repeats; FIG. 6
Method: As another example of a separation method useful in the present invention, a high-throughput gel electrophoresis assay with multiple loading capability is used in studies of self-splicing Group I introns. To be specific, the reaction sample, prepared similarly as described in the filtration assay, was loaded on a denaturing polyacrylamide gel (7 M urea, 6% polyacrylamide) and electrophoresed for 1 hour at room temperature. Due to their lengths, the ^32P-labeled products of the self-splicing introns can be readily distinguished from the ^32P-GTP on a polyacrylamide gel. On a single polyacrylamide gel, usually three or four repetitive loadings of different samples into the same wells at discrete times present no interference between samples. […] After a total of 3 hours of electrophoresis, the desired products are well-resolved in all samples regardless of the time of loading.
Each sample contains the same self-splicing reaction solution as described in the previous section (32 μL of precursor RNA in self-splicing buffer, 2 μL of DMSO or compound, and 6 μL solution of α-^32P-GTP). As described previously, the products of the self-splicing reactions are 5′-end labeled intron-containing 439-nt RNA (from the first step) and 390-nt RNA (from the second step). These large RNA fragments can be readily separated from the starting material, ^32P-GTP. After splicing reactions, a total of 20 samples were loaded on a polyacrylamide gel three times (first loading at time 0, then two more loadings at 1, and 2 hours after the first loading, respectively). […] In this gel electrophoresis assay, for the purpose of quantitation of reaction yields, appropriate ^32P-labeled RNA fragments can be introduced to each sample as an internal standard immediately prior to loading. The gels containing self-splicing products and internal standards separated according to their different mobilities can be dried and quantitated by a phosphor imager (Phosphoimager, Molecular Dynamics). […]

[2] = test system: self-splicing Pneumocystis carinii Group I intron RNA; assay: Filtration assay for self-splicing Group I intron (96-well, 32P-GTP incorporation, TCA precipitation); format: biochemical; conditions: single concentration 20 μM; four repeats; FIG. 6
Method: A high-throughput screening assay for self-splicing Group I introns using 96-well format filter plates is disclosed. Nonradioactive, intron-containing precursor RNA is incubated with α-^32P-labeled GTP in the absence or presence of small molecules. During the first step of Group I intron splicing, ^32P-GTP is covalently ligated to the 5′ terminus of the intron. Subsequently, the intron-containing products of both the first (439-nt RNA) and the second (390-nt RNA) steps are radioactively labeled at the 5′-end with ^32P isotopes. Free ^32P-GTP and the longer ^32P-labeled (acid-precipitable) RNA products can be readily separated through trichloroacetic acid precipitation and subsequent filtration through nitrocellulose membrane. The efficiency of inhibition can be followed by measuring the amount of the radioactivity retained on the filter membrane. In the control experiment, the spliced products containing 5′-^32P GMP will retain on the membrane. If the first step (5′-cleavage) is inhibited by a small molecule, incorporation of ^32P-GTP to the precursor RNA will be inhibited and, therefore, a decreased amount of radioactivity will be found on the membrane.
In each well of a 96-well U-bottom microtiter plate, 32 μL of precursor RNA (in self-splicing buffer 50 mM Tris-HCl, pH 7.5, 10 mM (NH4)2SO4, 10 mM MgCl2, 5 mM spermidine, and 5% glycerol) was added with 2 μL of a small organic compound in dimethylsulfoxide (DMSO) and the mixture incubated at room temperature for 5 minutes. […] The filter was allowed to dry and the retained radioactivities were determined using scintillation counting (Wallac Microbeta Counter). […]
Column 1 represents the results of eight repeats of the self-splicing reactions in the absence of any inhibitors while Column 12 represents the data of eight repeats of solution containing ^32P-GTP only. […] The results of a total of 18 plates (a total of 1,440 samples) have been analyzed and the statistical distribution of the inhibitory activities is shown in FIG. 4. […]

| Compound | Self-splicing inhibitory effect, gel electrophoresis assay [1] | Self-splicing inhibitory effect, filtration assay [2] |
| --- | --- | --- |
| N=C(N)c1ccc(OCCCCCOc2ccc(C(=N)N)cc2)cc1 [pentamidine] | either low or modest activity | either low or modest activity |
| [H]/N=C(/N)N[C@H]1[C@H](O)[C@@H](O)[C@H](O[C@@H]2O[C@@H](C)[C@](O)(C=O)[C@H]2O[C@@H]2O[C@@H](CO)[C@H](O)[C@@H](O)[C@@H]2NC)[C@@H](N/C(N)=N\[H])[C@@H]1O [streptomycin] | either low or modest activity | either low or modest activity |
| NCCC[C@H](N)CC(=O)N[C@H]1CNC(=O)[C@H]([C@H]2C[C@H](O)NC(N)=N2)NC(=O)/C(=C/NC(N)=O)NC(=O)[C@H](CO)NC(=O)[C@H](CO)NC1=O [viomycin, Viomycin] (β3hOrn-[Dap]SS[ΔAla(Z-3-ureido)][X1]; lactam 1-C) | either low or modest activity | either low or modest activity |
